From PMC5011342, “A high throughput drug screening assay to identify compounds that promote oligodendrocyte differentiation using acutely dissociated and purified oligodendrocyte precursor cells” (BMC Research Notes, 2016)
Read-outs that look alike come from different tables or passages of the source.

Key:
[1] = test system: acutely dissociated and purified rat OPCs; assay: Acute OL differentiation assay (MBP expression/cell, immunofluorescent image quantification); type: cell-based; conditions: for activation at 0.08 µM / activation at 0.4 µM / activation at 2 µM / activation at 10 µM: sheet "All OLga data"
How it was run: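 This acute differentiation assay used purified rat OPCs from postnatal day 6–7 pups, seeded into PDL/laminin-coated 96-well plates in differentiation medium lacking PDGF and FGF. Compounds were applied in quadruplicate after a 1–2 h preincubation at 37 °C, 10 % CO2, with 0.1 % DMSO negative and 40 ng/ml T3 positive controls in eight wells. After fixation on DIV4, anti-MBP immunofluorescence images yielded MBP expression/cell.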

[2] = test system: expanded OPCs; assay: cells; conditions: for 0.1 µM (% DMSO) / 1 µM (% DMSO) / 10 µM (% DMSO): alamarBlue viability of expanded OPCs, relative to DMSO control; for 0.1 µM (% DMSO): compound at 0.1 µM; for 1 µM (% DMSO): compound at 1 µM; for 10 µM (% DMSO): compound at 10 µM; for viability at 0.1 µM / viability at 1 µM / viability at 10 µM: Rattus norvegicus, 72 h
How it was run: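 Toxicity screen: compounds added at 0.1, 1 and 10 µM to PDGF-AA-expanded OPCs in 96-well plates, 3-day incubation at 37 °C, 10% CO2, then alamarBlue 1:10 for 4 h with fluorescence readout. Results set screening doses of 10/2, 2/0.4 or 0.4/0.08 µM.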

[3] = Rattus norvegicus, 2 uM test compound, relative to quetiapine, read-out: OL differentiation, 2 uM (% Quet)
[4] = Rattus norvegicus, 10 uM test compound, relative to quetiapine, read-out: OL differentiation, 10 uM (% Quet)
[5] = read-out: 0.1 µM (% DMSO), alamarBlue viability of expanded OPCs, compound at 0.1 µM, sheet All Tox data
[6] = read-out: 1 µM (% DMSO), alamarBlue viability of expanded OPCs, compound at 1 µM, sheet All Tox data
[7] = read-out: 10 µM (% DMSO), alamarBlue viability of expanded OPCs, compound at 10 µM, sheet All Tox data
[8] = Rattus norvegicus, test compound at 2 uM, NCC library screen, relative to quetiapine, read-out: 2 uM (% Quet)
[9] = Rattus norvegicus, test compound at 10 uM, NCC library screen, relative to quetiapine, read-out: 10 uM (% Quet)
[10] = read-out: 0.1 µM (% DMSO), alamarBlue viability, NCC library compound at 0.1 µM, sheet "All Tox data"
[11] = read-out: 1 µM (% DMSO), alamarBlue viability, NCC library compound at 1 µM, sheet "All Tox data"
[12] = read-out: 10 µM (% DMSO), alamarBlue viability, NCC library compound at 10 µM, sheet "All Tox data"
[13] = Rattus norvegicus, test compound at 2 uM, MBP expression relative to quetiapine, NCC library screen, read-out: 2 uM (% Quet)
[14] = Rattus norvegicus, test compound at 10 uM, MBP expression relative to quetiapine, NCC library screen, read-out: 10 uM (% Quet)
[15] = Rattus norvegicus, 0.4 uM test compound, relative to quetiapine, read-out: OL differentiation, 0.4 uM (% Quet)
[16] = Rattus norvegicus, test compound at 0.4 uM, NCC library screen, relative to quetiapine, read-out: 0.4 uM (% Quet)

SMILES	activation at 2 µM [1, 3] [%]	viability at 0.1 µM [2, 5] [%]	viability at 1 µM [2, 6] [%]	viability at 10 µM [2, 7] [%]	activation at 2 µM [1, 8] [%]	activation at 10 µM [1, 9] [%]	viability at 0.1 µM [2, 10] [%]	viability at 1 µM [2, 11] [%]	viability at 10 µM [2, 12] [%]	other results
CN1CCN(CC/C=C2/c3ccccc3Sc3ccc(S(=O)(=O)N(C)C)cc32)CC1 [Thiothixene]										activation at 0.08 µM ([1]; Rattus norvegicus, test compound at 0.08 uM, MBP expression relative to quetiapine, NCC library screen, read-out: 0.08 uM (% Quet)): 45.9%; activation at 0.4 µM ([1]; Rattus norvegicus, test compound at 0.4 uM, MBP expression relative to quetiapine, NCC library screen, read-out: 0.4 uM (% Quet)): 24%; 0.1 µM (% DMSO) [2]: 81.2 % DMSO; 1 µM (% DMSO) [2]: 49.9 % DMSO; 10 µM (% DMSO) [2]: 16.9 % DMSO
Cc1ccsc1C(=CCCN1CCC[C@@H](C(=O)O)C1)c1sccc1C [Tiagabine]	-1.8	99.9	89.2	92.7						activation at 10 µM [1, 4]: 8.7%
C#C[C@]1(O)CC[C@H]2[C@@H]3[C@H](C)CC4=C(CCC(=O)C4)[C@H]3CC[C@@]21C [Tibolone]					6.5	-6.7	84.8	85.4	77.4	
CC(C)(C)NC[C@H](O)COc1nsnc1N1CCOCC1 [Timolol]					-5.6	-24.3	99.5	89.9	92.8	
CCS(=O)(=O)CCn1c([N+](=O)[O-])cnc1C [Tinidazole]					-10.8	10.4	91.7	95.3	97.1	
Clc1ccc2nsnc2c1NC1=NCCN1 [Tizanidine]										activation at 2 µM [1, 13]: 13.7%; activation at 10 µM [1, 14]: -4.2%; 0.1 µM (% DMSO) [2]: 92.8 % DMSO; 1 µM (% DMSO) [2]: 97.3 % DMSO; 10 µM (% DMSO) [2]: 87.9 % DMSO
Cc1cccc(C)c1NC(=O)C(C)N (stereo not shown) [Tocainide]	1.2	94.9	96.2	98						activation at 10 µM [1, 4]: -23.2%
Cc1ccc(S(=O)(=O)NC(=O)NN2CCCCCC2)cc1 [Tolazamide]					-14.2	-2				0.1 µM (% DMSO) [2]: 100.3 % DMSO; 1 µM (% DMSO) [2]: 95.8 % DMSO; 10 µM (% DMSO) [2]: 99.9 % DMSO
c1ccc(CC2=NCCN2)cc1 [Tolazoline]										activation at 2 µM [1, 13]: -2.4%; activation at 10 µM [1, 14]: -19.3%; 0.1 µM (% DMSO) [2]: 90.4 % DMSO; 1 µM (% DMSO) [2]: 94.2 % DMSO; 10 µM (% DMSO) [2]: 86.6 % DMSO
CCCCNC(=O)NS(=O)(=O)c1ccc(C)cc1 [Tolbutamide]					-1.3	20.2	105	107	117	
Cc1ccc(O)c([C@H](CCN(C(C)C)C(C)C)c2ccccc2)c1 [Tolterodine]	-0.9	88.4	87.8	46.5						activation at 0.4 µM [1, 15]: -6.8%
CC1(C)O[C@@H]2[C@@H](CO[C@@]3(COS(N)(=O)=O)OC(C)(C)O[C@@H]23)O1 [Topiramate]	8.5	94	93.5	86.5						activation at 10 µM [1, 4]: 0.05%
CC[C@@]1(O)C(=O)OCc2c1cc1n(c2=O)Cc2cc3c(CN(C)C)c(O)ccc3nc2-1 [Topotecan]		72	49.7	12.3						activation at 0.08 µM ([1]; Rattus norvegicus, 0.08 uM test compound, relative to quetiapine, read-out: OL differentiation, 0.08 uM (% Quet)): -46.4%; activation at 0.4 µM [1, 15]: -124%
CN(C)CCOc1ccc(/C(=C(/CCCl)c2ccccc2)c2ccccc2)cc1 [Toremifene, reference compound]					-169		174	57.8	9.9	activation at 0.4 µM [1, 16]: 74.9%; EC50 ([1]; Rattus norvegicus, average EC50 for induction of OL differentiation from independent biological replicates, eight concentrations): 100 nM; hit in OL differentiation assay, MRF-TMC ([1]; ● = confirmed hit in this paper's assay): ●
Cc1cccc(Nc2ccncc2S(=O)(=O)NC(=O)NC(C)C)c1 [Torsemide]	31.2	90.5	88.3	93.4						activation at 10 µM [1, 4]: -6.1%
NC1CCN(c2nc3c(cc2F)c(=O)c(C(=O)O)cn3-c2ccc(F)cc2F)C1 (stereo not shown) [Tosufloxacin]	-17.9	95.4	104	92.2						activation at 10 µM [1, 4]: -6.5%
COc1cccc(C2(O)CCCCC2CN(C)C)c1 (stereo not shown) [Tramadol]					-1.7	-9.7	100	107	96.7	
COc1ccc(/C=C/C(=O)Nc2ccccc2C(=O)O)cc1OC [Tranilast]	5.9	90.5	90	85.8						activation at 10 µM [1, 4]: -18.5%
O=c1n(CCCN2CCN(c3cccc(Cl)c3)CC2)nc2ccccn12 [Trazodone]	-7.5	90.8	78.9	84.9						activation at 10 µM [1, 4]: 55%
O=C(O[C@H]1[C@H](Oc2ccccc2COC(=O)C2(O)C=CCCC2=O)O[C@H](CO)[C@@H](O)[C@@H]1O)c1ccccc1 (stereo partly shown) [Tremulacin]					-176		86.6	85.4	20.7	activation at 0.4 µM [1, 16]: -46.7%
CC1(C)O[C@@H]2C[C@H]3[C@@H]4CCC5=CC(=O)C=C[C@]5(C)[C@@]4(F)[C@@H](O)C[C@]3(C)[C@]2(C(=O)CO)O1 [Triamcinolone Acetonide]					-1.9	1.9	133	127	127	
Nc1nc(N)c2nc(-c3ccccc3)c(N)nc2n1 [Triamterene]					0.9	-18.8	94.9	96.5	95.3	
CSc1nc2cc(Cl)c(Oc3cccc(Cl)c3Cl)cc2[nH]1 [Triclabendazole]	-46.6	96.9	131	11.1						activation at 0.4 µM [1, 15]: -13.1%
Oc1cc(Cl)ccc1Oc1ccc(Cl)cc1Cl [Triclosan]										activation at 0.4 µM [1, 16]: 8.6%; 0.1 µM (% DMSO) [2]: 100.2 % DMSO; 1 µM (% DMSO) [2]: 117.5 % DMSO; 10 µM (% DMSO) [2]: 9.2 % DMSO
